Read-outs that look alike come from different tables or passages of the source.
What was measured:
human TLR7 = human TLR7 (Homo sapiens (Human), UniProt Q9NYK1); assay: TLR7 inhibition reporter assay (HEK-Blue cells, SEAP reporter, gardiquimod stimulation); type: cell-based
human TLR8 = human TLR8 (Homo sapiens (Human), UniProt Q9NR97); assay: TLR8 inhibition reporter assay (HEK-Blue cells, SEAP reporter, R848 stimulation);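 also: compounds tested from 0.05 nM to 50 µM, 22 h at 37 °C, SEAP measured with HEK-Blue Detection, inhibition relative to agonist plus DMSO versus a known inhibitor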
Sequence of human TLR8 (Q9NR97 27-1041): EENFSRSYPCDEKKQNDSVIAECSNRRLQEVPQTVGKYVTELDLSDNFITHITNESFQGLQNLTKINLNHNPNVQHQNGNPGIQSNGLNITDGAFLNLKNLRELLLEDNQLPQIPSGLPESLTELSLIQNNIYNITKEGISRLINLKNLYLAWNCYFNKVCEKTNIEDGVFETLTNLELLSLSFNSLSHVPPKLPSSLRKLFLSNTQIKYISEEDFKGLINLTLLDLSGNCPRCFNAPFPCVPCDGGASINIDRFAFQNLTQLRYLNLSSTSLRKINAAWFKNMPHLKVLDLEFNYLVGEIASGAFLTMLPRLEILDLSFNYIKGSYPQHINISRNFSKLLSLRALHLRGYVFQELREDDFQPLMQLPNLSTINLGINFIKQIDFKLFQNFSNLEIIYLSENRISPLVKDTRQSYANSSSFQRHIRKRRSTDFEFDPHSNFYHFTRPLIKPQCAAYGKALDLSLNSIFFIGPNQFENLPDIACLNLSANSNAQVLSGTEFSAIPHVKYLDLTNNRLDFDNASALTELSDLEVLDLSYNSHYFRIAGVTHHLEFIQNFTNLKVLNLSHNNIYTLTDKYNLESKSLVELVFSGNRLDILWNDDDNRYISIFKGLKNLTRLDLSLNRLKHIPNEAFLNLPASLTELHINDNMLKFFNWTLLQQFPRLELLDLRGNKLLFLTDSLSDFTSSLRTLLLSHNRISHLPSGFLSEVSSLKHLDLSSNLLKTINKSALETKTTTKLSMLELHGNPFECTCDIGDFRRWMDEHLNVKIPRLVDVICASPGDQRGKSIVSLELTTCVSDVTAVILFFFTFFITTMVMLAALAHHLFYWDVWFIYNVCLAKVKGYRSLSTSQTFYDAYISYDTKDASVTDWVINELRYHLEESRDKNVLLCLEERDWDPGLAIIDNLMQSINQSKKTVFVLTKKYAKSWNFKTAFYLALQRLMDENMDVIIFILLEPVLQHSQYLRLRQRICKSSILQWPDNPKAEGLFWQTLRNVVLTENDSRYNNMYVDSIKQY

human TLR9 = human TLR9 (Homo sapiens (Human), UniProt Q9NR96); assay: TLR9 inhibition reporter assay (HEK-Blue cells, SEAP reporter, ODN2006 stimulation);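 also: compounds tested over 0.05 nM to 50 µM, 22 h incubation, inhibition taken as SEAP signal drop from agonist plus DMSO wells toward a known inhibitor control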
Sequence of human TLR9 (Q9NR96 26-1032): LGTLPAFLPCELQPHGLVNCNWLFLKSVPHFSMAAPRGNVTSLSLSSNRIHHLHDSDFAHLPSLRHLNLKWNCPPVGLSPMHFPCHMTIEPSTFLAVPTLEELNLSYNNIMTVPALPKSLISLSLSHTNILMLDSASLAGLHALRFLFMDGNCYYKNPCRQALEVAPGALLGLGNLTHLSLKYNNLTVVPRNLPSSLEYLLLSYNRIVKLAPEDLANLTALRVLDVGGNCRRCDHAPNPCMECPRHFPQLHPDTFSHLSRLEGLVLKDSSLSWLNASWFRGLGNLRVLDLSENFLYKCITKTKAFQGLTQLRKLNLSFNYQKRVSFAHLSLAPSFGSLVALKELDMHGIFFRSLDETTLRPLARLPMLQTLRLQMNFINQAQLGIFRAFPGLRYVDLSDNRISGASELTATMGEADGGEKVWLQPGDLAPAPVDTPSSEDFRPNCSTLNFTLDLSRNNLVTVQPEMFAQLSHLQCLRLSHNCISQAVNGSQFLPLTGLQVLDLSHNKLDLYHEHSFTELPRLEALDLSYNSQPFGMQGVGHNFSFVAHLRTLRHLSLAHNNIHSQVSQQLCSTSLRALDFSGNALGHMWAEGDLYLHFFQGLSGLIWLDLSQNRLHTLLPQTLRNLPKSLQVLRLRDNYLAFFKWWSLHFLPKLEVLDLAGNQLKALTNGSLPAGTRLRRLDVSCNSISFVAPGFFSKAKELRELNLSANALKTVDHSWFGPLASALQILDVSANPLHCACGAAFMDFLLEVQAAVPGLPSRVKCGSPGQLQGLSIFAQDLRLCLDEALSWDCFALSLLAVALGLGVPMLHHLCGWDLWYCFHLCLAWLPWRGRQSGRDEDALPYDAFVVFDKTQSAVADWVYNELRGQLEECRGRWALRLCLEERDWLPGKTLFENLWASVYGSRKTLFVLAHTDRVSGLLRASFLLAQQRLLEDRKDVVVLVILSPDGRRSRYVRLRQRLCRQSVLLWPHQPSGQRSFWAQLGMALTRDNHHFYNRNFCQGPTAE

[1] = HEK-Blue cells overexpressing human TLR7, gardiquimod 7.5 μM
[2] = read-out: TLR8 IC50, HEK-Blue cells overexpressing human TLR8, R848 15.9 μM
[3] = read-out: TLR9 IC50, HEK-Blue cells overexpressing human TLR9, ODN2006 5 nM
[4] = HEK-Blue cells, gardiquimod 7.5 μM
[5] = read-out: TLR8 IC50, HEK-Blue cells, R848 15.9 μM
[6] = read-out: TLR9 IC50, HEK-Blue cells, ODN2006 5 nM

Sequence of human TLR7 (Q9NYK1 27-1049): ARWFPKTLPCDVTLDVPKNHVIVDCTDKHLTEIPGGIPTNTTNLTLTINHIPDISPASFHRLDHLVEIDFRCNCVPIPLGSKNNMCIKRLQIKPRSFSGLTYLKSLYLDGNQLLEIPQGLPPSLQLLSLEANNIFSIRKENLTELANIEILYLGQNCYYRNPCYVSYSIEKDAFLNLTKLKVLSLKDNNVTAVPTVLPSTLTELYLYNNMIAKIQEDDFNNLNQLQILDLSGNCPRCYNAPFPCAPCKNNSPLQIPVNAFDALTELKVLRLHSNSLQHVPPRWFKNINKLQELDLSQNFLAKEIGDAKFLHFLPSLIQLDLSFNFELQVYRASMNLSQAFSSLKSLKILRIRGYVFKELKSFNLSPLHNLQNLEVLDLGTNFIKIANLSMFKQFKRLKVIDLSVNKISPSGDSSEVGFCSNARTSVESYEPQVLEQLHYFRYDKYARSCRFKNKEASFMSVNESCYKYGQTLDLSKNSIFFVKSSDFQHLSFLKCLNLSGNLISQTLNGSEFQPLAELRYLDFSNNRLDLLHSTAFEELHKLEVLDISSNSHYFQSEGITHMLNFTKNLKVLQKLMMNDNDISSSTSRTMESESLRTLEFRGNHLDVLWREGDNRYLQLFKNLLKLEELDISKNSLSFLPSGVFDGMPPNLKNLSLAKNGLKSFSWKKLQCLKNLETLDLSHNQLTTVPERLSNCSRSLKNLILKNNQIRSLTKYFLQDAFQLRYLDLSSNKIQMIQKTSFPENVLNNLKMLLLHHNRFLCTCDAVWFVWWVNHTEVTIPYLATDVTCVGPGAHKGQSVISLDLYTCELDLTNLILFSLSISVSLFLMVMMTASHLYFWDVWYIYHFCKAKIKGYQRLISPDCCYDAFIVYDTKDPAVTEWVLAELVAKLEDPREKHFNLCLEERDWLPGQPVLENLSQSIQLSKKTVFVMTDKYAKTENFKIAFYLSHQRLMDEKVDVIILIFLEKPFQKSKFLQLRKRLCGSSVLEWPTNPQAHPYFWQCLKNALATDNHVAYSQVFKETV

SMILES | IC50 (human TLR7; [1]) | IC50 (human TLR8; [2]) | IC50 (human TLR9; [3]) | IC50 (human TLR7; [4]) | IC50 (human TLR8; [5]) | IC50 (human TLR9; [6])
Cc1cc(-c2[nH]c3ccc(C4CCN(C(=O)C(=O)N(C)CCN(C)C)CC4)cc3c2C(C)C)cc(C)n1 [Example 858, N-(2-(dimethylamino)ethyl)-2-(4-(2-(2,6-dimethylpyridin-4-yl)-3-isopropyl-1H-indol-5-yl)piperidin-1-yl)-N-methyl-2-oxoacetamide] |  |  |  | 1.9 nM | 5.7 nM | 519 nM
Cc1cc(-c2[nH]c3ccc(C4CCN(CC5(C)COC5)CC4)cc3c2C(C)C)ccn1 [Example 867, 3-isopropyl-5-(1-((3-methyloxetan-3-yl)methyl)piperidin-4-yl)-2-(2-methylpyridin-4-yl)-1H-indole] |  |  |  | 16.3 nM | 3.7 nM | 794 nM
CCc1c(-c2ccnc(C)c2)[nH]c2ccc(C3CCN(C(=O)C4CCNCC4)CC3)cc12 [Example 625, (4-(3-ethyl-2-(2-methylpyridin-4-yl)-1H-indol-5-yl)piperidin-1-yl)(piperidin-4-yl)methanone] | 84.5 nM | 83.5 nM | 177 nM |  |  | 
Cc1nccc(-c2[nH]c3ccc(C4CCNCC4)cc3c2C(C)C)c1N [Example 13, 4-(3-isopropyl-5-(piperidin-4-yl)-1H-indol-2-yl)-2-methylpyridin-3-amine] | 16.1 nM | 90 nM | 419 nM |  |  | 
CCc1c(-c2ccnc(OC)c2)[nH]c2ccc(C3CCN(C4CCN(C5CCCC5)CC4)CC3)cc12 [Example 785, 5-(1′-cyclopentyl-[1,4′-bipiperidin]-4-yl)-3-ethyl-2-(2-methoxypyridin-4-yl)-1H-indole] | 790 nM | 117 nM | 282 nM |  |  | 
Cc1cc(-c2[nH]c3ccc(C4CCNCC4)cc3c2C(C)(C)C)ccn1 [Example 86, 3-(tert-butyl)-2-(2-methylpyridin-4-yl)-5-(piperidin-4-yl)-1H-indole] | 23600 nM | > 50000 nM | 2550 nM |  |  | 
Cc1cc(-c2[nH]c3ccc(C4CCN(C(=O)Cn5cncn5)CC4)cc3c2C(C)C)cc(C)n1 [Example 170, 1-(4-(2-(2,6-dimethylpyridin-4-yl)-3-isopropyl-1H-indol-5-yl)piperidin-1-yl)-2-(1H-1,2,4-triazol-1-yl)ethan-1-one] | 12.1 nM | 206 nM | > 50000 nM |  |  | 
Cc1cc(-c2[nH]c3ccc(C4CCNC(=O)C4)cc3c2C(C)C)ccn1 (stereo not drawn) [Example 490, 4-(3-isopropyl-2-(2-methylpyridin-4-yl)-1H-indol-5-yl)piperidin-2-one] | 186 nM | 67.4 nM | > 50000 nM |  |  | 
COc1cc(-c2[nH]c3ccc(C4CCNCC4)cc3c2C(C)C)cc(C2CC2)n1 [Example 486, 2-(2-cyclopropyl-6-methoxypyridin-4-yl)-3-isopropyl-5-(piperidin-4-yl)-1H-indole] | 49 nM | 213 nM | 2760 nM |  |  | 
COc1cc(OC)nc(CN2CCC(c3ccc4[nH]c(-c5cc(C)ncc5F)c(C(C)C)c4c3)CC2)n1 [Example 694, 5-(1-((4,6-dimethoxypyrimidin-2-yl)methyl)piperidin-4-yl)-2-(5-fluoro-2-methylpyridin-4-yl)-3-isopropyl-1H-indole] | 20.7 nM | 7.8 nM | 3690 nM |  |  | 
CCc1c(-c2ccnc(C)c2)[nH]c2ccc(C3CCN(C(=O)CCC4CCNCC4)CC3)cc12 [Example 632, 1-(4-(3-ethyl-2-(2-methylpyridin-4-yl)-1H-indol-5-yl)piperidin-1-yl)-3-(piperidin-4-yl)propan-1-one] | 91.8 nM | 35.8 nM | 795 nM |  |  | 
Cc1cc(-c2[nH]c3ccc(C4CCN(C(=O)CN5CC(=O)NC5=O)CC4)cc3c2C(C)C)cc(C)n1 [Example 151, 1-(2-(4-(2-(2,6-dimethylpyridin-4-yl)-3-isopropyl-1H-indol-5-yl)piperidin-1-yl)-2-oxoethyl)imidazolidine-2,4-dione] | 15 nM | 83.8 nM | 46700 nM |  |  | 
CNC(=O)CN1CCC(c2ccc3[nH]c(-c4cc(C5CC5)ncc4F)c(C(C)C)c3c2)CC1 [Example 514, 2-(4-(2-(2-cyclopropyl-5-fluoropyridin-4-yl)-3-isopropyl-1H-indol-5-yl)piperidin-1-yl)-N-methylacetamide] | 60.3 nM | 269 nM | 10900 nM |  |  | 
CC(C)c1c(-c2ccnc(C(C)(C)O)c2)[nH]c2ccc(C3CCNCC3)cc12 [Example 58, 2-(4-(3-isopropyl-5-(piperidin-4-yl)-1H-indol-2-yl)pyridin-2-yl)propan-2-ol] | 31.2 nM | 667 nM | 888 nM |  |  | 
Cc1cc(-c2[nH]c3ccc(C4CCN(Cc5ccccc5)CC4)cc3c2C(C)C)cc(C)n1 [Example 318, 5-(1-benzylpiperidin-4-yl)-2-(2,6-dimethylpyridin-4-yl)-3-isopropyl-1H-indole] | 25.4 nM | 12.6 nM | 779 nM |  |  | 

Further compounds by falling IC50 (human TLR7; [1]), results first:

IC50 (human TLR7; [1]) | IC50 (human TLR8; [2]) | IC50 (human TLR9; [3]) | IC50 (human TLR7; [4]) | IC50 (human TLR8; [5]) | IC50 (human TLR9; [6]) | SMILES
12.1 nM | 2 nM | 6190 nM |  |  |  | Cc1cc(-c2[nH]c3ccc(C4CCN(Cc5cncs5)CC4)cc3c2C(C)C)c(F)cn1 [Example 688, 5-((4-(2-(5-fluoro-2-methylpyridin-4-yl)-3-isopropyl-1H-indol-5-yl)piperidin-1-yl)methyl)thiazole]
10.8 nM | 5.2 nM | 1670 nM |  |  |  | Cc1cc(-c2[nH]c3ccc(C4CCN(C(=O)CN(C)C)CC4)cc3c2C(C)C)c(C)cn1 [Example 585, 2-(dimethylamino)-1-(4-(2-(2,5-dimethylpyridin-4-yl)-3-isopropyl-1H-indol-5-yl)piperidin-1-yl)ethan-1-one]
10.7 nM | 117 nM | 45500 nM |  |  |  | Cc1cc(-c2[nH]c3ccc(C4CCN(C(=O)CN(C)Cc5ncn(C)n5)CC4)cc3c2C(C)C)cc(C)n1 [Example 419, 1-(4-(2-(2,6-dimethylpyridin-4-yl)-3-isopropyl-1H-indol-5-yl)piperidin-1-yl)-2-(methyl((1-methyl-1H-1,2,4-triazol-3-yl)methyl)amino)ethan-1-one]
10.6 nM | 6.9 nM | 967 nM |  |  |  | Cc1cc(-c2[nH]c3ccc(C4CCN(C(=O)[C@@H]5C[C@H](O)CCN5)CC4)cc3c2C(C)C)ccn1 [Example 581, ((2S,4R)-4-hydroxypiperidin-2-yl)(4-(3-isopropyl-2-(2-methylpyridin-4-yl)-1H-indol-5-yl)piperidin-1-yl)methanone]
10 nM | 20 nM | 817 nM |  |  |  | Cc1cc(-c2[nH]c3ccc(C4CCN(CC(=O)NC5(C)CCC5)CC4)cc3c2C(C)C)cc(C)n1 [Example 243, 2-(4-(2-(2,6-dimethylpyridin-4-yl)-3-isopropyl-1H-indol-5-yl)piperidin-1-yl)-N-(1-methylcyclobutyl)acetamide]
9.2 nM | 5.5 nM | 101 nM |  |  |  | Cc1cc(-c2[nH]c3ccc(C4CCN(CC5CCN(C(C)C)CC5)CC4)cc3c2C(C)C)ccn1 [Example 742, 3-isopropyl-5-(1-((1-isopropylpiperidin-4-yl)methyl)piperidin-4-yl)-2-(2-methylpyridin-4-yl)-1H-indole]
7.8 nM | 73.8 nM | 1070 nM |  |  |  | CCC(C)CN(CCO)CC(=O)N1CCC(c2ccc3[nH]c(-c4cc(C)nc(C)c4)c(C(C)C)c3c2)CC1 (stereo not drawn) [Example 406, 1-(4-(2-(2,6-dimethylpyridin-4-yl)-3-isopropyl-1H-indol-5-yl)piperidin-1-yl)-2-((2-hydroxyethyl)(2-methylbutyl)amino)ethan-1-one]
5.8 nM | 2.6 nM | 948 nM |  |  |  | Cc1cc(-c2[nH]c3ccc(C4CCN(CC(C)C)CC4)cc3c2C(C)C)c(C)cn1 [Example 666, 2-(2,5-dimethylpyridin-4-yl)-5-(1-isobutylpiperidin-4-yl)-3-isopropyl-1H-indole]
4.8 nM | 47.2 nM | 24400 nM |  |  |  | Cc1cc(-c2[nH]c3ccc(C4CCN(C(=O)Cn5nnnc5C)CC4)cc3c2C(C)C)cc(C)n1 [Example 159, 1-(4-(2-(2,6-dimethylpyridin-4-yl)-3-isopropyl-1H-indol-5-yl)piperidin-1-yl)-2-(5-methyl-1H-tetrazol-1-yl)ethan-1-one]
4.4 nM | 13.4 nM | 584 nM |  |  |  | Cc1cc(-c2[nH]c3ccc(C4CCN(C(=O)CN5CC6(COC6)C5)CC4)cc3c2C(C)C)cc(C)n1 [Example 364, 1-(4-(2-(2,6-dimethylpyridin-4-yl)-3-isopropyl-1H-indol-5-yl)piperidin-1-yl)-2-(2-oxa-6-azaspiro[3.3]heptan-6-yl)ethan-1-one]
3.1 nM | 6.5 nM | 648 nM |  |  |  | Cc1cc(-c2[nH]c3ccc(C4CCN(CC(=O)NC5CC5)CC4)cc3c2C(C)C)cc(C)n1 [Example 212, N-cyclopropyl-2-(4-(2-(2,6-dimethylpyridin-4-yl)-3-isopropyl-1H-indol-5-yl)piperidin-1-yl)acetamide]
2.6 nM | 1.9 nM | 221 nM |  |  |  | Cc1cc(-c2[nH]c3ccc(C4CCN(CCCN(C)C)CC4)cc3c2C(C)C)ccn1 [Example 669, 3-(4-(3-isopropyl-2-(2-methylpyridin-4-yl)-1H-indol-5-yl)piperidin-1-yl)-N,N-dimethylpropan-1-amine]
1.7 nM | 10.5 nM | 971 nM |  |  |  | CNC(C)(C)C(=O)N1CCC(c2ccc3[nH]c(-c4cc(C)nc(C)c4)c(C(C)C)c3c2)CC1 [Example 187, 1-(4-(2-(2,6-dimethylpyridin-4-yl)-3-isopropyl-1H-indol-5-yl)piperidin-1-yl)-2-methyl-2-(methylamino)propan-1-one]

Source: patent US10660877B2 (BRISTOL-MYERS SQUIBB COMPANY, priority 2016, dated 2020)
